Data as given in patent US20180251847A1, “METHOD OF PREDICTING THE TUMOR RESPONSE TO DNA METHYLATION INHIBITORS AND ALTERNATIVE THERAPEUTIC REGIMEN FOR OVERCOMING RESISTANCE” (PALACKY UNIVERSITY, OLOMOUC, priority 2014, published 2018).
Read-outs that look alike come from different tables or passages of the source.

Columns and labels:
Set-up in all cases: species or system human
HCT116 = assay: MTT based cell survival assay, parental HCT116; settings: HCT116 parental, MTT, 72 h drug treatment, read-out: Mean IC50
Procedure: To study the mechanism of resistance towards DNA methylation inhibitor, 2′-deoxy-5-azacytidine, we used the human colorectal cancer cell line (HCT116), human promyelocytic leukemia cells (HL-60), and human breast adenocarcinoma cell line (MCF-7) obtained from American Type Culture Collection (Manassas, Va.). The cell lines were cultured in complete growth media (Sigma-Aldrich, St. Louis, Mo.), supplemented with fetal bovine serum (FBS, PAN-Biotech GmbH, Aidenbach, Germany), 100 U/mL penicillin (Biotika, Slovenská L'upča, Slovak Republic) and 50 μg/mL streptomycin (Sigma-Aldrich), and the cultures were maintained at 37° C. and 5% CO2, in a humidified incubator. The cell line, HCT116 was grown in McCoy's 5 A medium supplemented with 10% FBS and 3 mM L-glutamine (Sigma-Aldrich), HL-60 was grown in Iscove's Modified Dulbecco's Medium with 20% FBS, and MCF-7 was grown in RPMI-1640 medium with 10% FBS.
The method is primarily based on reduction of yellow colored tetrazolium salt, 3-(4,5-dimethylthiazol-2-yl)-2,5-diphenyltetrazolium bromide (MTT) to insoluble purple colored formazan crystals by NAD(P)H-dependent oxidoreductase enzymes in mitochondria of the viable cell. The intensity of the purple color produced on solubilization of the formazan crystals is directly proportional to the number of viable cells (Meerloo J. V. et al., Methods in Molecular Biology 2011; 731, 237-45).
To determine the IC50 of the epigenetic drugs (Tocris Bioscience, Bristol, United Kingdom), four independent experiments were performed using triplicate wells of 96 well plates. Cells in 80 μL of medium were plated in each of the experimental and the control wells, followed by addition of 20 μL medium with five-fold drug concentration to experimental wells. The wells with medium alone were included alongside as blank for absorbance readings. […], 10 μL MTT (Sigma-Aldrich) prepared in 1×PBS (5 mg/mL) was added to all wells including blank and control, and incubated until the purple formazan crystals were visible after which 100 μL of detergent (10% SDS, pH: 5.5) was added and the plates were incubated overnight to solubilize the formazan and the cellular material.
(§1) Cross resistance was determined as the fold increase, whereas, the sensitivity was determined as the fold decrease in the IC50 of the drugs for the resistant cell lines compared to their genetically identical drug sensitive counterpart.

R1.1 (HCT116-RDAC) = assay: MTT based cell survival assay, DAC resistant HCT116 clone R1.1; settings: for IC50: R1.1, MTT, 72 h drug treatment, read-out: Mean IC50; for fold change (resistance index): IC50 R1.1 / IC50 HCT116
Procedure: (§2) The DAC resistant HCT116 cell lines were developed using two methods.
(§3) The method is primarily based on reduction of yellow colored tetrazolium salt, 3-(4,5-dimethylthiazol-2-yl)-2,5-diphenyltetrazolium bromide (MTT) to insoluble purple colored formazan crystals by NAD(P)H-dependent oxidoreductase enzymes in mitochondria of the viable cell.
(§4) Cells in 80 μL of medium were plated in each of the experimental and the control wells, followed by addition of 20 μL medium with five-fold drug concentration to experimental wells. The wells with medium alone were included alongside as blank for absorbance readings. After 72 h of drug treatment, 10 μL MTT (Sigma-Aldrich) prepared in 1×PBS (5 mg/mL) was added to all wells including blank and control, and incubated until the purple formazan crystals were visible after which 100 μL of detergent (10% SDS, pH: 5.5) was added and the plates were incubated overnight to solubilize the formazan and the cellular material.
as §1

R1.2 (HCT116-RDAC) = assay: MTT based cell survival assay, DAC resistant HCT116 clone R1.2; settings: for IC50: R1.2, MTT, 72 h drug treatment, read-out: Mean IC50; for fold change (resistance index): IC50 R1.2 / IC50 HCT116
Procedure: as §2, §3, §4, §1

R1.3 (HCT116-RDAC) = assay: MTT based cell survival assay, DAC resistant HCT116 clone R1.3; settings: for IC50: R1.3, MTT, 72 h drug treatment, read-out: Mean IC50; for fold change (resistance index): IC50 R1.3 / IC50 HCT116
Procedure: as §2, §3, §4, §1

R1.4 (HCT116-RDAC) = assay: MTT based cell survival assay, DAC resistant HCT116 clone R1.4; settings: for IC50: R1.4, MTT, 72 h drug treatment, read-out: Mean IC50; for fold change (resistance index): IC50 R1.4 / IC50 HCT116
Procedure: as §2, §3, §4, §1

R2.1 (HCT116-RDAC) = assay: MTT based cell survival assay, DAC resistant HCT116 clone R2.1; settings: for IC50: R2.1, MTT, 72 h drug treatment; for fold change (resistance index): IC50 R2.1 / IC50 HCT116
Procedure: as §2, §3, §4, §1

R2.2 (HCT116-RDAC) = assay: MTT based cell survival assay, DAC resistant HCT116 clone R2.2; settings: for IC50: R2.2, MTT, 72 h drug treatment, read-out: Mean IC50; for fold change (resistance index): IC50 R2.2 / IC50 HCT116
Procedure: as §2, §3, §4, §1

SMILES	IC50 (HCT116; Homo sapiens, HCT-116)	IC50 (R1.1 (HCT116-RDAC); Homo sapiens, HCT-116)	fold change (resistance index) (R1.1 (HCT116-RDAC))	IC50 (R1.2 (HCT116-RDAC); Homo sapiens, HCT-116)	fold change (resistance index) (R1.2 (HCT116-RDAC))	IC50 (R1.3 (HCT116-RDAC); Homo sapiens, HCT-116)	fold change (resistance index) (R1.3 (HCT116-RDAC))	IC50 (R1.4 (HCT116-RDAC); Homo sapiens, HCT-116)	fold change (resistance index) (R1.4 (HCT116-RDAC))	IC50 (R2.1 (HCT116-RDAC); Homo sapiens, HCT-116)	fold change (resistance index) (R2.1 (HCT116-RDAC))	IC50 (R2.2 (HCT116-RDAC); Homo sapiens, HCT-116)	fold change (resistance index) (R2.2 (HCT116-RDAC))	IC50 (HCT116)	IC50 (R1.1 (HCT116-RDAC))	IC50 (R1.2 (HCT116-RDAC))	IC50 (R1.3 (HCT116-RDAC))	IC50 (R1.4 (HCT116-RDAC))	IC50 (R2.1 (HCT116-RDAC))	IC50 (R2.2 (HCT116-RDAC))
Nc1ncn([C@@H]2O[C@H](CO)[C@@H](O)[C@H]2O)c(=O)n1 [AZA, 5-azacytidine]	3.02 µM	9.36 µM	(3.10) fold	11.7 µM	(3.87) fold	10.6 µM	(3.50) fold	14.9 µM	(4.92) fold	12.3 µM	(4.07) fold	14.5 µM	(4.19) fold							
CCCCCCCCCCCCCCCc1cccc(O)c1C(=O)O [Ancardic acid, Anacardic acid]			(1.07) fold		(1.06) fold		(1.04) fold		(1.02) fold		(1.03) fold		(1.04) fold	120 µM	128 µM	127 µM	125 µM	122 µM	124 µM	125 µM
COc1cc2nc(N3CCCN(C)CC3)nc(NC3CCN(Cc4ccccc4)CC3)c2cc1OC [BIX-01294]	2.55 µM	3 µM	(1.17) fold	3.02 µM	(1.19) fold	2.97 µM	(1.16) fold	3.05 µM	(1.20) fold	3.4 µM	(1.33) fold	3.22 µM	(1.26) fold							
CC1=NN(c2ccc(C(=O)O)cc2)C(=O)/C1=C\c1ccc(-c2cc(C)c(C)cc2[N+](=O)[O-])o1 [C646]			(1.35) fold		(1.51) fold		(1.42) fold		(1.53) fold		(1.52) fold		(1.64) fold	33.5 µM	45.1 µM	50.6 µM	47.5 µM	51.3 µM	51 µM	55 µM
Cl.Nc1nccc2c1ncn2[C@@H]1C=C(CO)[C@@H](O)[C@H]1O [DZNep, 3-Deazaneplanocin A hydrochloride]			(30.34) fold		(30.34) fold		(30.34) fold		(30.34) fold		(30.34) fold		(30.34) fold	0.82 µM						
